ChEMBL document CHEMBL5104107, “Toward the Design of Ligands Selective for the C-Terminal Domain of TEADs” (J Med Chem, 2022)

Columns and labels:
[1] = target: Transcriptional enhancer factor TEF-4 (Homo sapiens) (UniProt Q15562); experiment: Thermal stabilization of C-terminal human TEAD2 (217 to 447 residues) assessed as change in melting temperature by thermal shift assay
[2] = target: Transcriptional enhancer factor TEF-1 (Homo sapiens) (UniProt P28347); experiment: Binding affinity to recombinant TEAD1 (unknown origin) assessed as increase in thermal stability by thermal shift assay
Chain of Transcriptional enhancer factor TEF-1 (Homo sapiens) (P28347 whole entry): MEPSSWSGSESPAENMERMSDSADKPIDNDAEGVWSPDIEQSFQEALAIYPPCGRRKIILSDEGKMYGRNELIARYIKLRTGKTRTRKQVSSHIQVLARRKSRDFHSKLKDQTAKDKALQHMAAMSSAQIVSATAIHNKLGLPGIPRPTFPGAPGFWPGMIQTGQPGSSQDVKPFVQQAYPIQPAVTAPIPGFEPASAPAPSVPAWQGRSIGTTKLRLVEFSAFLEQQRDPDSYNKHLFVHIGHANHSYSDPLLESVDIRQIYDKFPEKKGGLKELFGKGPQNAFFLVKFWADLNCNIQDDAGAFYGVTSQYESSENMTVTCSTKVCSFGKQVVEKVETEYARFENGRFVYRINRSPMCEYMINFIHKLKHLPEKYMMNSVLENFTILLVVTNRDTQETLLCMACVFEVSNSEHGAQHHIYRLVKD

[3] = target: Transcriptional enhancer factor TEF-4 (Homo sapiens) (UniProt Q15562); experiment: Binding affinity to recombinant TEAD2 (unknown origin) assessed as increase in thermal stability by thermal shift assay

Chain of Transcriptional enhancer factor TEF-4 (Homo sapiens) (Q15562 whole entry, the tested form may be a part): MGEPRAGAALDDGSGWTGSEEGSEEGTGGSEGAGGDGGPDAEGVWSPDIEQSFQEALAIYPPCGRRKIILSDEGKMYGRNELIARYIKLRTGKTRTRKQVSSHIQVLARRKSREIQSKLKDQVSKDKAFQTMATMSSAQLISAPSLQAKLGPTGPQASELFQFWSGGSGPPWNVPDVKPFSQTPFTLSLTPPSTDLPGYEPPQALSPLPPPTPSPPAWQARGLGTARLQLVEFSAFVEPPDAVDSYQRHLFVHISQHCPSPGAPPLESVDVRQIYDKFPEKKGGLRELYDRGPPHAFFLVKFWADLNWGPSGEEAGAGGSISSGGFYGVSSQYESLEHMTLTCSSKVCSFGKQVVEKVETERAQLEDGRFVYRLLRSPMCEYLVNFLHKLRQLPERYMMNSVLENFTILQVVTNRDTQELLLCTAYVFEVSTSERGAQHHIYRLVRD

Row | Structure (SMILES) | ΔTm [1] | deltaT [2] | deltaT [3]
1 | Nc1cccc(-c2cc[nH]n2)c1 | 0.95 °C |  | 
2 | CNS(=O)(=O)c1ccc(Nc2ccc(C(F)(F)F)cc2)c(-c2cn(C)cn2)c1 |  | 8.3 °C | 4.2 °C
